Laboratory results from paper PMC8911550, “The Effects of Side-Chain Configurations of a Retro–Inverso-Type Inhibitor on the Human T-Cell Leukemia Virus (HTLV)-1 Protease” (Molecules, 2022).
Numbered stars: 1 amine (or outer) side, 2 acyl side, 3 side chain; on linkers, the order of the positions; unused ones are H or OH. Square brackets hold non-standard residues; d marks the D form. Ends that are not written are not given here. Peptide text beside a SMILES is read from it. X1 = CC(C)C[C@H](C(=O)[*:2])[C@H](O)C[C@H]1CCCN1[*:1]; d(aIle) = CC[C@H](C)[C@@H](N)C(=O)O; aIle = CC[C@@H](C)[C@H](N)C(=O)O

Assays:
[1] = molecular target: T1, recombinant HTLV-1 protease (1-116, L40I) (Human T-cell leukemia virus 1, UniProt P10274, L489I); assay: biochemical; assay type: biochemical, human T-cell leukemia virus type 1 (HTLV-1); conditions: for inhibitory activity relative to RI-inhibitor 3: effect of D-allo-Ile replacement, RI-inhibitor 3 as reference, recombinant protease
T1 construct: examined using the recombinant HTLV-1 protease (1-116, L40I) and a substrate dodecapeptide; made in house; host or cells: E. coli BL21(DE3)
T1 sequence (P10274 450-565 L489I): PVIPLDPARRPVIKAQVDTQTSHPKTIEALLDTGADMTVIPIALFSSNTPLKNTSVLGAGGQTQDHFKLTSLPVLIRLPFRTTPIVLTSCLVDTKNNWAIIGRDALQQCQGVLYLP
Procedure: The reaction mixture was directly analyzed by analytical HPLC with a C18 reversed-phase column. Each IC50 value of the RI-type inhibitor was obtained from the sigmoidal dose–response curve (Figure S6) calculated from the decrease in substrate concentration.
The reaction mixture was analyzed on a Cosmosil 5C18-ARII column (4.6 × 150 mm), employing a linear gradient of CH3CN (10–40%, 30 min) in aqueous 0.1% TFA. Each IC50 value was obtained from a sigmoidal dose–response curve obtained from the decrease in the substrate in the reaction mixture (Figure S3). Each experiment was repeated three times.

HTLV-1 protease = conditions: ref [20]; cited from earlier work
[2] = test system: recombinant HTLV-1 protease; assay: Cleavage of allo-Ile-containing substrates by recombinant HTLV-1 protease, analytical HPLC; assay type: biochemical, human T-cell leukemia virus type 1 (HTLV-1); conditions: decrease in substrate by analytical HPLC, Figure 3
Procedure: Each synthesized substrate (4–6) was then treated with the recombinant HTLV-1 protease, and the decrease in each substrate level was monitored using analytical HPLC [15].
Figure 3 Cleavage reaction of the substrates containing allo-Ile residues by the HTLV-1 protease: blue, original substrate; orange, substrate 4; gray, substrate 5; yellow, substrate 6.

CC[C@H](C)[C@@H](NC(=O)[C@@H](CC(C)C)[C@H](O)C[C@H]1CCCN1C(=O)[C@H](NC(C)=O)[C@@H](C)CC)C(=O)N[C@@H](C(=O)N1CCC[C@@H]1C(=O)N1CCC[C@@H]1C(N)=O)C(C)C [RI-inhibitor 10] (Ac-[d(aIle)][X1][d(aIle)][dV][dP][dP]-NH2)
IC50 [1]: 85 µM
inhibitory activity relative to RI-inhibitor 3 [1]: tripled the inhibitory activity

C[C@@H](NC(=O)[C@H]1N(C(=O)[C@@H](O)[C@H](Cc2ccccc2)NC(=O)[C@@H](NC(=O)[C@@H](NC(=O)CN2CCOCC2)c2ccccc2)C(C)(C)C)CSC1(C)C)C(C)(C)C [KNI-10729]
inhibition at 50 nM (HTLV-1 protease): 79%

CC[C@@H](C)[C@@H](NC(C)=O)C(=O)N1CCC[C@@H]1C[C@@H](O)[C@H](CC(C)C)C(=O)N[C@@H](C(=O)N[C@@H](C(=O)N1CCC[C@@H]1C(=O)N1CCC[C@@H]1C(N)=O)C(C)C)[C@@H](C)CC [RI-inhibitor 9] (Ac-[dI][X1][d(aIle)][dV][dP][dP]-NH2)
IC50 [1]: 130 µM
inhibitory activity relative to RI-inhibitor 3 [1]: doubled the inhibitory activity

CC[C@@H](C)[C@@H](NC(=O)[C@@H](CC(C)C)[C@H](O)C[C@H]1CCCN1C(=O)[C@H](NC(C)=O)[C@H](C)CC)C(=O)N[C@@H](C(=O)N1CCC[C@@H]1C(=O)N1CCC[C@@H]1C(N)=O)C(C)C [RI-inhibitor 3] (Ac-[dI][X1][dI][dV][dP][dP]-NH2)
IC50 [1]: 240 µM

substrate 4: substrate 4 containing an allo-Ile residue at the prime site (9-allo-Ile) (KGPPVILP[aIle]QAP-NH2; N-terminus assumed; SMILES CC[C@@H](C)[C@H](NC(=O)[C@@H]1CCCN1C(=O)[C@H](CC(C)C)NC(=O)[C@@H](NC(=O)[C@@H](NC(=O)[C@@H]1CCCN1C(=O)[C@@H]1CCCN1C(=O)CNC(=O)[C@@H](N)CCCCN)C(C)C)[C@@H](C)CC)C(=O)N[C@@H](CCC(N)=O)C(=O)N[C@@H](C)C(=O)N1CCC[C@H]1C(N)=O)
cleavage rate compared with original substrate, in words [2]: cleaved at a slightly lower rate than the original substrate

CC[C@@H](C)[C@@H](NC(=O)[C@@H](CC(C)C)[C@H](O)C[C@H]1CCCN1C(=O)[C@H](NC(C)=O)[C@@H](C)CC)C(=O)N[C@@H](C(=O)N1CCC[C@@H]1C(=O)N1CCC[C@@H]1C(N)=O)C(C)C [RI-inhibitor 8] (Ac-[d(aIle)][X1][dI][dV][dP][dP]-NH2)
IC50 [1]: 110 µM
inhibitory activity relative to RI-inhibitor 3 [1]: doubled the inhibitory activity

substrate 5: substrate 5 containing an allo-Ile residue at the non-prime site (6-allo-Ile) (KGPPV[aIle]LPIQAP-NH2; N-terminus assumed; SMILES CC[C@@H](C)[C@H](NC(=O)[C@@H](NC(=O)[C@@H]1CCCN1C(=O)[C@@H]1CCCN1C(=O)CNC(=O)[C@@H](N)CCCCN)C(C)C)C(=O)N[C@@H](CC(C)C)C(=O)N1CCC[C@H]1C(=O)N[C@H](C(=O)N[C@@H](CCC(N)=O)C(=O)N[C@@H](C)C(=O)N1CCC[C@H]1C(N)=O)[C@@H](C)CC)
cleavage rate compared with original substrate, in words [2]: clearly showed a lower cleavage rate than the original substrate

substrate 6: substrate 6 containing two allo-Ile residues at both sites (6,9-allo-Ile) (KGPPV[aIle]LP[aIle]QAP-NH2; N-terminus assumed; SMILES CC[C@@H](C)[C@H](NC(=O)[C@@H](NC(=O)[C@@H]1CCCN1C(=O)[C@@H]1CCCN1C(=O)CNC(=O)[C@@H](N)CCCCN)C(C)C)C(=O)N[C@@H](CC(C)C)C(=O)N1CCC[C@H]1C(=O)N[C@H](C(=O)N[C@@H](CCC(N)=O)C(=O)N[C@@H](C)C(=O)N1CCC[C@H]1C(N)=O)[C@H](C)CC)
cleavage rate compared with original substrate, in words [2]: clearly showed a lower cleavage rate than the original substrate
